Source: patent publication US9266892B2, “Fused pyrazoles as FGFR inhibitors” (Incyte Corporation, priority 2012, dated 2016)

Key:
Type in all cases: biochemical
FGFR1 = biological target: T1, FGFR1 (Homo sapiens, UniProt P11362); test: FGFR Enzymatic Assay (FRET peptide phosphorylation), FGFR1; settings: FGFR1 0.02 nM, ATP 210 μM
T1 construct: purchased Millipore or Invitrogen
Summary of the method: (§1)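 Human FGFR1 (0.02 nM) and FGFR2 (0.01 nM) were pre-incubated with compound for 5-10 min in HEPES buffer pH 7.5, then reacted at 25 °C for 1 hr with 500 nM biotinylated peptide and ATP (FGFR1 210 μM; FGFR2 100 μM). Phosphopeptide was detected by Eu-PY20/APC-streptavidin TR-FRET after EDTA quench. IC50 came from variable-slope sigmoidal fits.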

FGFR2 = biological target: T2, FGFR2 (Homo sapiens, UniProt P21802); test: FGFR Enzymatic Assay (FRET peptide phosphorylation), FGFR2; settings: FGFR2 0.01 nM, ATP 100 μM
T2 construct: purchased Millipore or Invitrogen
Summary of the method: as §1

FGFR3 = biological target: T3, FGFR3 (Homo sapiens, UniProt P22607); test: FGFR Enzymatic Assay (FRET peptide phosphorylation), FGFR3; settings: ATP 140 μM, 25° C. for 1 hr
T3 construct: purchased Millipore
Summary of the method: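 FGFR3 in 50 mM HEPES pH 7.5, 10 mM […]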

Measured: IC50

T3 sequence (P22607 23-806): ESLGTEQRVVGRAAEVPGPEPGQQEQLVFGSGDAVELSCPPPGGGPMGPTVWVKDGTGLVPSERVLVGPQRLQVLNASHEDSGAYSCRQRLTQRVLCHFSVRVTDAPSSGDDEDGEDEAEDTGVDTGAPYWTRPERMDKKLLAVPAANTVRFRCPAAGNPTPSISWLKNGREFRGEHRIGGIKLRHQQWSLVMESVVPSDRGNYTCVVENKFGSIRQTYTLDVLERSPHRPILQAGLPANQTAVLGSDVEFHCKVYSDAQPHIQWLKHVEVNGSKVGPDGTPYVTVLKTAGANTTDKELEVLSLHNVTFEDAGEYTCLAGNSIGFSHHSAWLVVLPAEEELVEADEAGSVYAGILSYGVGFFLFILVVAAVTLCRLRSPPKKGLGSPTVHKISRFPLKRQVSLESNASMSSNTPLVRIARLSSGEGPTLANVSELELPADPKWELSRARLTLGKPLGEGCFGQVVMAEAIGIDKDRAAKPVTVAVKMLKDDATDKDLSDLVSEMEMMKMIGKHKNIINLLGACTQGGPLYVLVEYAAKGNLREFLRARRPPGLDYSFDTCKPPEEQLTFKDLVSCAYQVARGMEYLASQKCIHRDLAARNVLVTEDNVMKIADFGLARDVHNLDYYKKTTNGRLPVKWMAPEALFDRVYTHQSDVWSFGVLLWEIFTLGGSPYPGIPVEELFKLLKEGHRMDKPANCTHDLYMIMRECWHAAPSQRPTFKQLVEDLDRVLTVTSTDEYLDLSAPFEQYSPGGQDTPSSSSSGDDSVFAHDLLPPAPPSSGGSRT
T1 sequence (P11362 22-822): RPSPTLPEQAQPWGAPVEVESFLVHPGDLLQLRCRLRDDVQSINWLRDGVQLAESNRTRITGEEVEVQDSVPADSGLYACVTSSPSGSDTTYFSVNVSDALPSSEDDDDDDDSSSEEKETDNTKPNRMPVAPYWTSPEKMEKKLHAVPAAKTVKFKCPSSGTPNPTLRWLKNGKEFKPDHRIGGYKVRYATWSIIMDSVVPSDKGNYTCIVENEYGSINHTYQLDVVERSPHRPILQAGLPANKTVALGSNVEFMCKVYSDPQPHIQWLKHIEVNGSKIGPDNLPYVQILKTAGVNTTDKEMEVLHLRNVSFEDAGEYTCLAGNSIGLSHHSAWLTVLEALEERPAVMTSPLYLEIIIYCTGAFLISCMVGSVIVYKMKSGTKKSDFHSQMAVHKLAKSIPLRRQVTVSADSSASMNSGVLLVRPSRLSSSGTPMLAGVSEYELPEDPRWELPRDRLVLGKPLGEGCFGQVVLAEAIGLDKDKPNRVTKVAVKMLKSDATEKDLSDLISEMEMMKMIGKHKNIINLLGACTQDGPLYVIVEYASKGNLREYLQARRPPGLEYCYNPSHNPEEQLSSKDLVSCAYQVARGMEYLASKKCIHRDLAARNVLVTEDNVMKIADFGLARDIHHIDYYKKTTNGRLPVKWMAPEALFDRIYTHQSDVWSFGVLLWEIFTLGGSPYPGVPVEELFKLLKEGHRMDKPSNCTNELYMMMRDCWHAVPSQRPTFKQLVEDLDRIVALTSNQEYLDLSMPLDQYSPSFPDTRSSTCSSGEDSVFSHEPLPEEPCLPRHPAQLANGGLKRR
T2 sequence (P21802 22-821): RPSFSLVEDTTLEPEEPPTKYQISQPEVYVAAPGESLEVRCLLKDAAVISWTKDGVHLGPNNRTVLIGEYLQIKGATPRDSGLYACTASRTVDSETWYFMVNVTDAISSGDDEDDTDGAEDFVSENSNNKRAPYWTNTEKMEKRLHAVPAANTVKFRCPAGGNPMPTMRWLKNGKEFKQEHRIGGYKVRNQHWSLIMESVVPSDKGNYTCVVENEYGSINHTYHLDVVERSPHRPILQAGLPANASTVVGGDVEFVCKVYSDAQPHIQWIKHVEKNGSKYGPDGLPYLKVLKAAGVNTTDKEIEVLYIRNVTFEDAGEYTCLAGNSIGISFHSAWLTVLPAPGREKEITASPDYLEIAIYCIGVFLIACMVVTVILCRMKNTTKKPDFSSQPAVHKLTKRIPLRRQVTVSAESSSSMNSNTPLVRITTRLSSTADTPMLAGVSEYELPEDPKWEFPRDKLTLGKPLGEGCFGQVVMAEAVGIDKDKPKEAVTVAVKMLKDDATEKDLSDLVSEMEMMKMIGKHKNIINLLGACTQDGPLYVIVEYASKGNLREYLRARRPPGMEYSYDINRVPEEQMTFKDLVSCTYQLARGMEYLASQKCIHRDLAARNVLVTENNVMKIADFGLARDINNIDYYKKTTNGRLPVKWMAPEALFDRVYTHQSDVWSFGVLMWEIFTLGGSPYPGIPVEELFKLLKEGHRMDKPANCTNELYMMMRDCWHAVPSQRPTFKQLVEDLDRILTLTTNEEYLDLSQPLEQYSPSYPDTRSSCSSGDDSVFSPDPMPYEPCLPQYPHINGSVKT

COc1cc(OC)c(Cl)c(-c2ncc3c(-c4ccc5c(c4)CCC(C(=O)N(C)C)O5)n[nH]c3n2)c1Cl (stereo not drawn) [Example 2, 6-[6-(2,6-Dichloro-3,5-dimethoxyphenyl)-1H-pyrazolo[3,4-d]pyrimidin-3-yl]-N,N-dimethylchromane-2-carboxamide]
< 0.1 µM: all assays above

COc1cc(OC)c(F)c(-c2ncc3c(-c4ccc5c(c4)CN([C@H]4CC[C@@H](O)CC4)C5=O)n[nH]c3n2)c1F [Example 16, 5-[6-(2,6-Difluoro-3,5-dimethoxyphenyl)-1H-pyrazolo[3,4-d]pyrimidin-3-yl]-2-(cis-4-hydroxycyclohexyl)isoindolin-1-one]
< 0.1 µM: all assays above

COc1cc(OC)c(Cl)c(-c2cc3[nH]nc(-c4ccc5c(c4)CN(C4CC4)C5=O)c3cn2)c1Cl [Example 28, 2-Cyclopropyl-5-[6-(2,6-dichloro-3,5-dimethoxyphenyl)-1H-pyrazolo[4,3-c]pyridin-3-yl]isoindolin-1-one]
< 0.1 µM: all assays above

COc1cc(OC)c(Cl)c(-c2ncc3c(-c4ccc5c(c4)CN([C@H]4CC[C@@H](O)CC4)C5=O)n[nH]c3n2)c1Cl [Example 22, 5-[6-(2,6-Dichloro-3,5-dimethoxyphenyl)-1H-pyrazolo[3,4-d]pyrimidin-3-yl]-2-(cis-4-hydroxycyclohexyl)isoindolin-1-one]
< 0.1 µM: all assays above

COc1cc(OC)c(Cl)c(-c2cc3[nH]nc(-c4cnn(CC(=O)NC5CC5)c4)c3cn2)c1Cl [Example 38, N-Cyclopropyl-2-{4-[6-(2,6-dichloro-3,5-dimethoxyphenyl)-1H-pyrazolo[4,3-c]pyridin-3-yl]-1H-pyrazol-1-yl}acetamide]
< 0.1 µM: all assays above

COc1cc(OC)c(F)c(-c2ncc3c(-c4ccc5c(c4)CN(C(C)C)C5=O)n[nH]c3n2)c1F [Example 78, 5-[6-(2,6-Difluoro-3,5-dimethoxyphenyl)-1H-pyrazolo[3,4-d]pyrimidin-3-yl]-2-isopropylisoindolin-1-one]
< 0.1 µM: all assays above

COc1cc(OC)c(Cl)c(-c2cnc3c(-c4cnn(C)c4)n[nH]c3c2)c1Cl [Example 70, 6-(2,6-dichloro-3,5-dimethoxyphenyl)-3-(1-methyl-1H-pyrazol-4-yl)-1H-pyrazolo[4,3-b]pyridine]
< 0.1 µM: all assays above

COCCNC(=O)Cn1cc(-c2n[nH]c3cc(-c4c(Cl)c(OC)cc(OC)c4Cl)ncc23)cn1 [Example 46, 2-{4-[6-(2,6-Dichloro-3,5-dimethoxyphenyl)-1H-pyrazolo[4,3-c]pyridin-3-yl]-1H-pyrazol-1-yl}-N-(2-methoxyethyl)acetamide]
< 0.1 µM: all assays above

COc1cc(OC)c(F)c(-c2ncc3c(-c4ccc5c(c4)CC(C(=O)N(C)C)O5)n[nH]c3n2)c1F (single isomer, unassigned) [Example 4, 5-[6-(2,6-Difluoro-3,5-dimethoxyphenyl)-1H-pyrazolo[3,4-d]pyrimidin-3-yl]-N,N-dimethyl-2,3-dihydro-1-benzofuran-2-carboxamide]
< 0.1 µM: all assays above

COc1cc(OC)c(F)c(-c2cc3[nH]nc(-c4ccc5c(c4)CN(CCN(C)C)C5=O)c3cn2)c1F [Example 67, 5-[6-(2,6-Difluoro-3,5-dimethoxyphenyl)-1H-pyrazolo[4,3-c]pyridin-3-yl]-2-[2-(dimethylamino)ethyl]isoindolin-1-one]
< 0.1 µM: all assays above

CCN1Cc2cc(-c3n[nH]c4cc(-c5c(F)c(OC)cc(OC)c5F)ncc34)cnc2C1=O [Example 55, 3-[6-(2,6-Difluoro-3,5-dimethoxyphenyl)-1H-pyrazolo[4,3-c]pyridin-3-yl]-6-ethyl-5,6-dihydro-7H-pyrrolo[3,4-b]pyridin-7-one]
< 0.1 µM: all assays above

COc1cc(OC)c(F)c(-c2cc3[nH]nc(-c4ccc5c(c4)CN(C4CCOCC4)C5=O)c3cn2)c1F [Example 59, 5-[6-(2,6-Difluoro-3,5-dimethoxyphenyl)-1H-pyrazolo[4,3-c]pyridin-3-yl]-2-(tetrahydro-2H-pyran-4-yl)isoindolin-1-one]
< 0.1 µM: all assays above
